This is an account of results in article PMC8881610 (Nature Communications, 2022).

What all share (test): Whole-cell binding assay, competition with 125I-GIP1-42
What all share (set-up): acylated tirzepatide to the full-length or modified; Flag; expressed in transfected cells

The target in experiment [1] is T1, GIPR (Homo sapiens, UniProt P48546, Q285A).
T1 sequence (P48546 22-466 Q285A): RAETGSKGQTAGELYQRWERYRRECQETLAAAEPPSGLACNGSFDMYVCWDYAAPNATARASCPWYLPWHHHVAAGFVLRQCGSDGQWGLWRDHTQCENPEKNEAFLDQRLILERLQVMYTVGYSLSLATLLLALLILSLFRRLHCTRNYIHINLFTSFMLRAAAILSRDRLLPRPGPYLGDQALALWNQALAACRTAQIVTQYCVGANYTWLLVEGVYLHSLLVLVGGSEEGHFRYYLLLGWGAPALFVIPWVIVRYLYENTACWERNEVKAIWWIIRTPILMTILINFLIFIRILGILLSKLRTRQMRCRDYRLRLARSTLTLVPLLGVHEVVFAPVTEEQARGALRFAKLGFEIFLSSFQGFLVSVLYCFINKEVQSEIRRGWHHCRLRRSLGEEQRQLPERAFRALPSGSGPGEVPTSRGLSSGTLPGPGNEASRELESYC
The settings on record: GIPR Q285A, CHO-K1. The gist of the method:
(§1)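 Transiently transfected CHO-K1 cells expressing WT or mutant GIPR were washed in F-12 with 0.1% BSA or 0.1% casein and 33 mM HEPES, then incubated 2 h at 37 °C. After ice-cold PBS washes, cells were lysed and bound radioactivity counted (CPM).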

Experiment [2] has as its target T2, GIPR (Homo sapiens, UniProt P48546, E135A).
T2 sequence (P48546 22-466 E135A): T1 sequence (P48546 22-466 Q285A) with E114A, A264Q
The settings on record: GIPR E135A, CHO-K1. In outline: as §1

The target of experiment [3] is T3, GIPR (Homo sapiens, UniProt P48546, R192A).
T3 sequence (P48546 22-466 R192A): T1 sequence (P48546 22-466 Q285A) with R171A, A264Q
The settings on record: GIPR R192A, CHO-K1. In outline: as §1

Where [4] appears, read: read-out: binding pIC50 (converted).

Positions count from the first letter of the chain named.

With `CCCCCCCCCCCCCCCC(=O)N[C@@H](CCC(=O)NCCCC[C@H](NC(=O)[C@H](CC(=O)O)NC(=O)[C@H](CO)NC(=O)[C@@H](NC(=O)[C@H](Cc1ccccc1)NC(=O)[C@@H](NC(=O)CNC(=O)[C@H](CCC(N)=O)NC(=O)C(C)(C)NC(=O)[C@@H](N)Cc1c[nH]cn1)[C@@H](C)O)[C@@H](C)O)C(=O)N[C@@H](CO)C(=O)N[C@@H](CCCCN)C(=O)N[C@@H](Cc1ccc(O)cc1)C(=O)N[C@@H](CC(C)C)C(=O)N[C@@H](CC(=O)O)C(=O)N[C@@H](CCC(=O)O)C(=O)N[C@@H](CCCNC(=N)N)C(=O)N[C@@H](C)C(=O)N[C@@H](C)C(=O)N[C@@H](CCC(N)=O)C(=O)N[C@@H](CC(=O)O)C(=O)N[C@@H](Cc1ccccc1)C(=O)N[C@H](C(=O)N[C@@H](CCC(N)=O)C(=O)N[C@@H](Cc1c[nH]c2ccccc12)C(=O)N[C@@H](CC(C)C)C(=O)N[C@@H](CC(C)C)C(=O)N[C@@H](CC(=O)O)C(=O)NCC(=O)NCC(=O)N1CCC[C@H]1C(=O)N[C@@H](CO)C(=O)N[C@@H](CO)C(=O)NCC(=O)N[C@@H](C)C(=O)N1CCC[C@H]1C(=O)N1CCC[C@H]1C(=O)N1CCC[C@H]1C(=O)N[C@@H](CO)C(N)=O)C(C)C)C(=O)O` [Peptide 20], the results for the “binding Span” value on GIPR [1], on GIPR [2] and on GIPR [3] were 108.98 ± 3.60 % WT, 64.00 ± 2.46 % WT and 71.60 ± 4.11 % WT, respectively. For the same compound, the IC50 on GIPR [1] (setting [4]) was 13.5 nM; on GIPR [2] (setting [4]), 5.62 nM; at GIPR [3] (setting [4]), 24 nM.
